Test results published in the METLIN SMRT retention time set (Domingo-Almenara et al. 2019).

Assay: gradient 5% acetonitrile 3 min, to 50% in 2 min, to 85% in 15 min, held 3 min, 100 µL/min
Details: column: Zorbax Extend-C18 2.1 x 50 mm; eluents: water / acetonitrile, 0.1% formic acid
Outline: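 Retention times come from adduct peaks that were picked computationally and then checked by hand. The standards, pure and pooled in mixtures of ~100 molecules, were run on a Zorbax Extend-C18 column (2.1 × 50 mm, 1.8 μm) at 100 μL/min with water and acetonitrile, each with 0.1% formic acid. Detection was by quadrupole time-of-flight mass spectrometry in positive and negative ionization mode, with a dead volume of 40 μL and a dwell volume of 900 μL.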

RP-LC retention time [s]	Compound
815	CCc1noc(-c2ccnc(-n3ncc(C(=O)NC4CC4)c3C)c2)n1
802	Cc1ccc(-c2nc3ncccn3c2Nc2ccccc2C)cc1
963	Cc1cccc(-c2noc(Cn3ccn(-c4cc(C)ccc4C)c(=O)c3=O)n2)c1
599	Clc1ccc(Nc2nnc(Cc3ccncc3)c3ccccc23)cc1
543	CN(C)C(=O)c1cc2c(s1)CCC(C(=O)NCCc1cccnc1)C2 (stereo unspecified)
611	CCOc1cc2c(cc1OCC)C1C(C(=O)Nc3cccnc3)c3ccccc3C(=O)N1CC2 (stereo unspecified)
1060	CC(C)Cn1cc(CCNS(=O)(=O)c2ccc(Cl)c(Cl)c2)c2cccnc21
1070	O=C1C2N=NN(Cc3nc(-c4ccccc4Cl)no3)C2C(=O)N1c1ccc2c(c1)CCC2 (stereo unspecified)
766	Cc1ccc(CNC(=O)c2cc3n(n2)CC(C)(C(=O)NCc2ccccc2)N(C)C3=O)cc1 (stereo unspecified)
566	CCNC(=O)Nc1ccc2c(c1)CN(Cc1scnc1C)CCO2
649	CCOC(=O)/C(C#N)=C\c1c[nH]c2ccccc12
571	CS(=O)(=O)N[C@H]1C[C@@H]2C[C@H]1CN2C(=O)c1ccc(C(F)(F)F)cc1
831	CCCCc1c(C)n(CC(=O)NCC2CCCO2)c2nc(-c3ccccc3)nn2c1=O (stereo unspecified)
924	CC(=O)c1cccc(NC(=O)c2nn(C)c(C(F)(F)F)c2Cl)c1
756	Cc1ccc2c(c1)C(=O)NC1(CCN(C(=O)c3cccc(F)c3)CC1)N2C
936	COC(=O)C1CCN(S(=O)(=O)CCCOc2cccc3c2OC(C)(C)C3)CC1
902	CC(C)(C)N(Cc1ccc2c(c1)OCO2)C(=O)/C=C\S(=O)c1ccccc1 (stereo unspecified)
743	CN(C1CCc2nn(CC3CC3)c(=O)n2CC1)S(=O)(=O)c1ccc(C#N)cc1 (stereo unspecified)
869	O=C(Cn1ncc2c(c1=O)N(CC1CC1)C(=O)CS2)Nc1cccc(C(F)(F)F)c1
604	COc1ccccc1NC(=O)N1CCc2nc(CNC(=O)C3CCC3)n(C)c2C1
706	COc1ccc(NC(=O)C2(CCO)CCN(c3ncccn3)C2)cn1 (stereo unspecified)
590	Cn1cc(C(CNS(=O)(=O)c2cnc[nH]2)c2cccnc2)c2ccccc21 (stereo unspecified)

RP-LC retention time [s]	Compound
1270	Cc1c2c(nn1-c1ccc(SCc3ccccc3F)nn1)CCC2
915	CC(C)n1c(N2CCN(C(=O)c3cc4ccccc4[nH]3)CC2)cc(=O)n(C(C)C)c1=O
816	Cc1cc(C(=O)N2CCCCC2)c2c(=O)n(CC(=O)Nc3ccc(F)cc3F)c(=O)n(C)c2n1
640	Cc1cc(OCC(=O)NCc2ccccc2Br)nc(N2CCCC2)n1
948	Cc1nn(C(C)C(=O)NCCC(C)C)c(=O)c2c(C)n(-c3ccccc3)nc12 (stereo unspecified)
1100	O=c1ccc(-c2ccccc2)nn1Cc1nc(-c2ccc(Br)cc2)no1
1150	COc1cccc(-c2nc(C3CCN(S(=O)(=O)c4ccc(F)c(C)c4)CC3)no2)c1
678	CN(C)CCCNc1oc(-c2ccc(F)cc2)nc1S(=O)(=O)c1ccccc1
696	Cc1ccc(F)c(NS(=O)(=O)c2cc3n(c2)CCN(C)C3=O)c1
567	O=C(NCCN1CCCCC1)C1CCN(c2ccc(-c3ccc(F)cc3)nn2)CC1
634	Clc1ccc(OCc2nc(-c3cccnc3)n[nH]2)cc1
712	CC(C)c1nnc2ccc(NC(=O)Nc3ccccc3)cn12
676	COCc1noc([C@@H]2CN(C(=O)C3(c4ccccc4)CC3)C[C@H]2CO)n1
1030	O=C(Nc1ccc(-c2nc3ccccc3s2)cc1)c1cc(=O)c2ccccc2o1
935	CCOC(=O)C1CCN(c2c(C#N)cnc3ccc(Cl)cc23)CC1
708	COc1cccc(CNC(=O)Cn2cnc3onc(C)c3c2=O)c1
1200	Cc1cc(-c2c(C)sc(C)c2S(=O)(=O)Nc2ccc(C(C)C)cc2)n[nH]1
633	CCc1ccccc1NC(=O)Cn1c(N)nc(CC)c(C)c1=O
742	CCc1nc2cccnc2n1CCN1CCN(C(=O)Nc2ccc(C)c(Cl)c2)CC1
686	COc1ccc(-c2cn3c(CC(=O)NCc4ccc(C)o4)csc3n2)cc1OC
1060	Cc1ccc(Cn2c(N3CCCC(C(=O)Nc4ccc(F)cc4)C3)nc3ccsc3c2=O)cc1 (stereo unspecified)
1010	Cn1nc(-c2nc(-c3ccccc3F)no2)c2c1CCN(C(=O)C1(c3ccccc3)CC1)C2

RP-LC retention time [s]	Compound
640	CC(NC(=O)Cc1cccc(F)c1)C(=O)Nc1nc2ccccc2[nH]1 (stereo unspecified)
822	CC(=O)c1cccc(NC(=O)Cn2nc3c4cc(-c5ccccc5)nn4ccn3c2=O)c1
704	CCCC(NC(=O)Cc1ccccc1C)C(=O)Nc1nc2ccccc2[nH]1 (stereo unspecified)
891	COCCn1cc2c3c(cccc31)CN(C(=O)Nc1ccc(OC)c(F)c1)CC2
581	CCOCCCNC(=O)N1CCN(Cc2nc3cc(C(=O)N(C)C)ccc3n2CC)CC1
841	CCCN1C(=O)COc2ccc(-c3noc(Cc4ccc(NC(C)=O)cc4)n3)cc21
1040	CC(C)Oc1ccc(CNC(=O)C2=Cc3ccccc3OC2)cc1
750	Cc1cc(C(=O)NCCCc2ccccc2)c2c(=O)n(C)c(=O)n(C)c2n1
798	Cn1nccc1-c1cccc(-c2noc(CNC(=O)c3ccccc3)n2)c1
719	CCCCNC(=O)CC1CCN(C(=O)c2[nH]c(C)cc2C)CC1
1060	O=C(CSc1nnnn1-c1ccccc1)c1ccc(Cl)c(Cl)c1
1140	Cc1cc(C(=O)NCc2ccc(F)cc2F)nc2cc(-c3cccs3)nn12
949	Cc1cc(OCC(=O)Nc2cccc(Cl)c2C)nc(N2CCN(c3ccccc3)CC2)n1
882	CC1Sc2ccc(S(=O)(=O)N3CCC(C(=O)N4CCc5ccccc5C4)CC3)cc2NC1=O (stereo unspecified)
928	CC(C)CCn1c(=O)oc2ccccc21
896	O=c1c2c(CO)c(-c3ccccc3)nn2ccn1Cc1ccccc1
627	O=C(NC1CCc2nn(CC3CC3)c(=O)n2CC1)c1cc(C2CC2)[nH]n1 (stereo unspecified)
1030	CC1CCN(S(=O)(=O)c2ccc3nn(Cc4c(F)cccc4Cl)c(=O)n3c2)CC1
947	Cc1c(S(=O)(=O)Nc2cccc(-c3ccc4ccccc4n3)c2)cnn1C(F)F
1030	O=c1n(Cc2cccc(C(F)(F)F)c2)nc2ccc(S(=O)(=O)N3CCCCC3)cn12
900	CCOC(=O)c1ccc(NC(=O)C2CCCN2S(=O)(=O)c2cc(C(=O)OC)n(C)c2)cc1 (stereo unspecified)
718	O=C(Nc1nnc(-c2ccsc2)o1)C1CC(=O)N(c2ccc(Cl)cc2)C1 (stereo unspecified)
